Reference: patent US20060205822A1, “1-Aminocyclohexane derivatives for the treatment of multiple sclerosis, emotional lability and pseudobulbar affect” (Forest Laboratories, Inc., priority 2004, published 2006)

What was measured:
[1] = test system: thermal hyperalgesia and mechanical allodynia; conditions: relatively high doses; without obvious effects on motor reflexes; cited from earlier work
NMDA receptor = conditions: noncompetitive antagonist; cited from earlier work
[2] = test system: spastic hind limbs of EAE mice; assay: Spasticity (resistance to hindlimb flexion against a strain gauge) in the EAE model in mice; type: in vivo, ABH mice; design: Resistance to flexion, Diff of Means: unit not given here
From the text: Induction of EAE. Induction of EAE in animal models is well known in the art. (Raine, Chapter 16, Handbook of Clinical Neurology, vol. 3(47): Demyelinating Diseases, Koetsier, ed., (Elsevier Science Publishers 1985). In the present protocol, 6-8 week ABH mice are immunized with mouse spinal cord homogenate in Freund's complete adjuvant on day 0 & 7. (Baker et al. 1990. J. Neuroimmunol 28:261 O'Neill et al 1992. J. Neuroimmunol. 38:53). Animals will develop relapsing remitting episodes of paralysis at approximately 3-4 week intervals. These will be monitored daily from day 11 onwards to ensure severity levels of paralysis and maintained with humane limits according to the Home Office, Animals (Scientific Procedures) Act […]. Spasticity (stiff hind limbs) after 2-3 relapse episodes (approximately 80-120 days post-induction) will be allowed to develop. Animals with visually spastic limbs will be selected for assessment of the TEST compound.
Resistance to flexion against a strain gauge will be the primary assessment (Baker et al. 2000. Nature), secondary outcome measures will be the presence or absence of spastic tails.
Spasticity. The “stiffness” of spastic limbs is measured using a purpose built strain gauge, and assessed by the resistance force against hindlimb flexion. The limb is extended manually twice prior to measurement of each limb. Limbs showing severe crossing or flexion will not be analyzed. The signal is amplified and digitized using DAS16 card (Amplicon, Brighton UK.) and acquired using Dacquire V10 software and analyzed using Spike 2 software (Baker et al 2000). Left and right hindlimbs are analyzed alternately and typically 5-8 readings per limb were measured at each time point. The mean values will be calculated and converted to forces in Newtons. Data will be analyzed using one-way repeated measures analysis of variance (ANOVA) incorporating Student-Newman-Keuls posthoc test. Differences to baseline will also be compared using Paired t tests.
Administration of compound. The TEST compounds are dissolved in vehicle (to be supplied by the SPONSOR-preferably this will be a saline solution) using doses (to be supplied by the SPONSOR). These will be delivered by the intravenous, intraperitoneal or oral route (to be supplied by the sponsor). Resistance to flexion will be assessed at 10 minutes 30 minutes and 60 minutes following intravenous, intraperitoneal injection, 30, 60 and 90 minutes after oral administration. (Escalating doses (up to three) may be used in the same cohort of animals following wash-out to allow for direct comparison of the dose response).

adult rats = conditions: cited from earlier work
[3] = test system: acquired pendular nystagmus; conditions: physical symptom of multiple sclerosis; cited from earlier work

CC1(C)CC(C)(C)CC(C)(N)C1 [Neramexane, 1-amino-1,3,3,5,5-pentamethylcyclohexane]
Thermal hyperalgesia and mechanical allodynia [1]: selectively block thermal hyperalgesia and mechanical allodynia
Affinity for the NMDA receptor (NMDA receptor): moderate affinity
Resistance to flexion, Diff of Means ([2]; 3.1 mg/kg, 0 min vs. 10 min, P<0.001): 0.171
Resistance to flexion, Diff of Means ([2]; 3.1 mg/kg, 0 min vs. 30 min, P<0.001): 0.142
Resistance to flexion, Diff of Means ([2]; 3.1 mg/kg, 0 min vs. 60 min, P<0.001): 0.218
Resistance to flexion, Mean ([2]; 3.1 mg/kg, 10 min post-injection, baseline 0 min 0.593, N=13): 0.422 N
Resistance to flexion, Diff of Means ([2]; 3.1 mg/kg, 10 min vs. 60 min, P 0.228, Do Not Test): 0.0474
Resistance to flexion, Mean ([2]; 3.1 mg/kg, 30 min post-injection, baseline 0 min 0.593, N=13): 0.451 N
Resistance to flexion, Diff of Means ([2]; 3.1 mg/kg, 30 min vs. 10 min, P 0.453, Do Not Test): 0.0293
Resistance to flexion, Diff of Means ([2]; 3.1 mg/kg, 30 min vs. 60 min, P 0.130, not significant): 0.0767
Resistance to flexion, Mean ([2]; 3.1 mg/kg, 60 min post-injection, baseline 0 min 0.593, N=13): 0.374 N
Resistance to flexion, Diff of Means ([2]; 6.2 mg/kg, 0 min vs. 10 min, P 0.999, not significant): 0.0000691
Resistance to flexion, Diff of Means ([2]; 6.2 mg/kg, 0 min vs. 30 min, P 0.013): 0.117
Resistance to flexion, Diff of Means ([2]; 6.2 mg/kg, 0 min vs. 60 min, P<0.001): 0.172
Resistance to flexion, Mean ([2]; 6.2 mg/kg, 10 min post-injection, baseline 0 min 0.567, N=11): 0.567 N
Resistance to flexion, Diff of Means ([2]; 6.2 mg/kg, 10 min vs. 30 min, P 0.005): 0.117
Resistance to flexion, Diff of Means ([2]; 6.2 mg/kg, 10 min vs. 60 min, P<0.001): 0.172
Resistance to flexion, Mean ([2]; 6.2 mg/kg, 30 min post-injection, baseline 0 min 0.567, N=11): 0.450 N
Resistance to flexion, Diff of Means ([2]; 6.2 mg/kg, 30 min vs. 60 min, P 0.162, not significant): 0.0549
Resistance to flexion, Mean ([2]; 6.2 mg/kg, 60 min post-injection, baseline 0 min 0.567, N=11): 0.395 N
Resistance to flexion, Diff of Means ([2]; 12.3 mg/kg, 0 min vs. 10 min, P<0.001): 0.114
Resistance to flexion, Diff of Means ([2]; 12.3 mg/kg, 0 min vs. 30 min, P<0.001): 0.103
Resistance to flexion, Diff of Means ([2]; 12.3 mg/kg, 0 min vs. 60 min, P<0.001): 0.189
Resistance to flexion, Mean ([2]; 12.3 mg/kg, 10 min post-injection, baseline 0 min 0.453, N=14): 0.339 N
Resistance to flexion, Diff of Means ([2]; 12.3 mg/kg, 10 min vs. 60 min, P 0.007): 0.0757
Resistance to flexion, Mean ([2]; 12.3 mg/kg, 30 min post-injection, baseline 0 min 0.453, N=14): 0.350 N
Resistance to flexion, Diff of Means ([2]; 12.3 mg/kg, 30 min vs. 10 min, P 0.693, not significant): 0.0106
Resistance to flexion, Diff of Means ([2]; 12.3 mg/kg, 30 min vs. 60 min, P 0.007): 0.0863
Resistance to flexion, Mean ([2]; 12.3 mg/kg, 60 min post-injection, baseline 0 min 0.453, N=14): 0.263 N
Level of hind limb spasticity ([2]; all 3 doses (3.1, 6.2, 12.3 mg/kg), affected EAE mice): reduced the level of hind limb spasticity

CC12CC3CC(C)(C1)CC(N)(C3)C2 [Memantine, 1-amino-3,5-dimethyl adamantane]
Thermal hyperalgesia and mechanical allodynia [1]: selectively block thermal hyperalgesia and mechanical allodynia
Affinity for the NMDA receptor (NMDA receptor): moderate affinity
Formation of hippocampal long-term potentiation (adult rats): enhance the formation of hippocampal long-term potentiation
Spatial memory abilities (adult rats): improve spatial memory abilities
Treatment of acquired pendular nystagmus [3]: effective
